The target of this assay is HPK1 (MAP4K1) (Homo sapiens, UniProt Q92918). The experiment in a line: FRET Assay for HPK1 (MAP4K1): one step binding assay, displacement of labeled tracer. The following applies: for inhibition at 1 µM: 1 μM compound; for inhibition at 1 µM / inhibition at 10 µM: FRET ratio 665/620, percent of control; for inhibition at 10 µM: 10 μM compound; for IC50: dose response curve, nonlinear regression. The text has this:
FRET Assay for HPK1 (MAP4K1):
This is a one step binding assay based on the binding and displacement of the labeled tracer, where compound addition is followed by addition of the anti-GST tagged europium (Eu) as the donor and Alexa Fluor-labeled tracer as the acceptor. Simultaneous binding of both the tracer and GST-antibody to the kinase domain of HPK1 results in a high degree of FRET (fluorescence resonance energy transfer) from the anti-GST tagged europium (Eu) fluorophore to the Alexa Fluor® 647 fluorophore on the kinase tracer and this signal is reduced in presence of the inhibitor that can be measured.
Test compounds or reference compounds such as Sunitinib (Sigma) were dissolved in dimethylsulfoxide (DMSO) to prepare 10.0 mM stock solutions and diluted to the desired concentration. The final concentration of DMSO in the reaction was 3% (v/v). The assay mixture was prepared by mixing 4 nM of the Eu-Anti-GST Antibody and 10 nM MAP4K-1 enzyme in the Kinase buffer containing 50mM HEPES (pH 7.5), 10 mM MgCl2, 1 mM EGTA, 0.01% Brij-35 with or without the desired concentration of the compound. The reaction was incubated on ice for 15 mins. The pre-incubation step was followed by addition of the 20 nM Kinase Tracer 222 into the reaction mixture. After shaking for 5 min the reaction was further incubated for 1 hour at room temperature and this was kept at 4° C. and read on ARTEMIS reader as per the kit instructions (Thermo). […] The activity was calculated as percent of control reaction. IC50 values were calculated from dose response curve by nonlinear regression analysis using GraphPad Prism software.
Percentage inhibition at concentrations of 1.0 μM and 10.0 μM are given in the table along with IC50 (nM) details for selected examples.

Bounds are passed on as bounds.

Chain of HPK1 (MAP4K1) (Q92918 whole entry): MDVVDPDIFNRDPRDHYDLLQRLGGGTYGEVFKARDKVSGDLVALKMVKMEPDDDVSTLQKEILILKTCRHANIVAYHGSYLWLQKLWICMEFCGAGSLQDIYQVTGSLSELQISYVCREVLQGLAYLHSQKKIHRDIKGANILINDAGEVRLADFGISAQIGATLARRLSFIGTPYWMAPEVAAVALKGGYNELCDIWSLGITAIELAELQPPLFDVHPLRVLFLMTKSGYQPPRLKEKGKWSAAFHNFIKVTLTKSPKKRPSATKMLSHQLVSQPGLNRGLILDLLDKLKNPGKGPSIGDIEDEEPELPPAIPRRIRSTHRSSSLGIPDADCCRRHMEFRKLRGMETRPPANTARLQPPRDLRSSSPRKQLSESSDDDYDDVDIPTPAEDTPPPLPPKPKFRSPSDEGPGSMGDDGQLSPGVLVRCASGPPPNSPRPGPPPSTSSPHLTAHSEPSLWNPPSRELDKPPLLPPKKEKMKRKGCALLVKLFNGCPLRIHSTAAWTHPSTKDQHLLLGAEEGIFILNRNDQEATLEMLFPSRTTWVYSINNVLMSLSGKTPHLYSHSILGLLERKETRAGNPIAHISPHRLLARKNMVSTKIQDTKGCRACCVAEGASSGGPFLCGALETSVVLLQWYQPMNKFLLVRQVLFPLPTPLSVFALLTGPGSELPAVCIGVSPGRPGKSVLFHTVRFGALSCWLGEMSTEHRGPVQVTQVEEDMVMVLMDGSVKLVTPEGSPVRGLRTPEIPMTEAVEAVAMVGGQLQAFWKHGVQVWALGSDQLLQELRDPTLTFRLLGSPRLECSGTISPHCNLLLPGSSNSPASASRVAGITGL

With `Cc1ccncc1-c1cc2c(cn1)NC(=O)/C2=C(\Nc1cnn(C)c1)C(C)C` [Example 48, (Z)-3-(2-Methyl-1-((1-methyl-1H-pyrazol-4-yl)amino)propylidene)-5-(4-methylpyridin-3-yl)-1H-pyrrolo[2,3-c]pyridin-2(3H)-one], the inhibition at 1 µM is 77.2%, the inhibition at 10 µM turned out to be 84.8% and the IC50 is 50 to 100 nM.
On the same counts, the results for `C/C(Nc1cnn(C2CC2)c1)=C1/C(=O)Nc2cnc(-c3cnccc3C)cc21` [Example 49, (Z)-3-(1-((1-Cyclopropyl-1H-pyrazol-4-yl)amino)ethylidene)-5-(4-methylpyridin-3-yl)-1H-pyrrolo[2,3-c]pyridin-2(3H)-one] are 64.3%, 74.2% and below 50 nM.
The matching figures for `CCn1cc(N/C(C)=C2\C(=O)Nc3cnc(-c4cnccc4C)cc32)cn1` [Example 50, (Z)-3-(1-((1-Ethyl-1H-pyrazol-4-yl)amino)ethylidene)-5-(4-methylpyridin-3-yl)-1H-pyrrolo[2,3-c]pyridin-2(3H)-one]: 82.8%, 87.9% and below 50 nM.
With `C/C(Nc1cnn(C)c1)=C1/C(=O)Nc2cnc(-c3cncc(N)c3C)cc21` [Example 51, (Z)-5-(5-Amino-4-methylpyridin-3-yl)-3-(1-((1-methyl-1H-pyrazol-4-yl)amino)ethylidene)-1H-pyrrolo[2,3-c]pyridin-2(3H)-one], the inhibition at 1 µM was determined as 81.2%, the inhibition at 10 µM was determined as 84.2% and the IC50 was below 50 nM.
The matching figures for `C/C(Nc1cnn(C2COC2)c1)=C1/C(=O)Nc2cnc(-c3cnccc3C)cc21` [Example 52, (Z)-5-(4-Methylpyridin-3-yl)-3-(1-((1-(oxetan-3-yl)-1H-pyrazol-4-yl)amino)ethylidene)-1H-pyrrolo[2,3-c]pyridin-2(3H)-one]: 86.1%, 84.9% and below 50 nM.
As to `C/C(Nc1cnn(C(C)(C)C#N)c1)=C1/C(=O)Nc2cnc(-c3cnccc3C)cc21` [Example 53, (Z)-2-Methyl-2-(4-((1-(5-(4-methylpyridin-3-yl)-2-oxo-1H-pyrrolo[2,3-c]pyridin-3(2H)-ylidene)ethyl)amino)-1H-pyrazol-1-yl)propanenitrile], the inhibition at 1 µM came out at 87.1%, the inhibition at 10 µM was found to be 85.4% and the 50% inhibitory concentration (IC50) was below 50 nM.
The matching figures for `C/C(Nc1ccn(C)n1)=C1/C(=O)Nc2cnc(-c3cnccc3C)cc21` [Example 54, (Z)-3-(1-((1-methyl-1H-pyrazol-3-yl)amino)ethylidene)-5-(4-methylpyridin-3-yl)-1H-pyrrolo[2,3-c]pyridin-2(3H)-one]: 88.5%, 86.1% and below 50 nM.
The matching figures for `C/C(Nc1cnn(C)c1)=C1/C(=O)Nc2cnc(-c3c(C)noc3C)cc21` [Example 55, (Z)-5-(3,5dimethylisoxazol-4-yl)-3-(1-((1-methyl-1H-pyrazol-4-yl)amino)ethylidene)-1H-pyrrolo[2,3-c]pyridin-2(3H)-one]: 78%, 90% and 50 to 100 nM.
On the same counts, the results for `COc1cccc(F)c1-c1cnc2c(c1)/C(=C(\C)Nc1cnn(C)c1)C(=O)N2` [Example 56, (Z)-5-(2-Fluoro-6-methoxyphenyl)-3-(1-((1-methyl-1H-pyrazol-4-yl)amino)ethylidene)-1H-pyrrolo[2,3-b]pyridin-2(3H)-one] are 66.8%, 75.2% and 100 to 500 nM.
Take `C/C(Nc1cnn(C2CCOCC2)c1)=C1/C(=O)Nc2cnc(-c3cnccc3C)cc21` [Example 57, (Z)-5-(4-Methylpyridin-3-yl)-3-(1-((1-(tetrahydro-2H-pyran-4-yl)-1H-pyrazol-4-yl)amino)ethylidene)-1H-pyrrolo[2,3-c]pyridin-2(3H)-one]: the inhibition at 1 µM is 80.9%, the inhibition at 10 µM stood at 94.1% and the IC50 is below 50 nM.
On to `C/C(Nc1ccc(N2CCNCC2)cc1)=C1/C(=O)Nc2cnc(-c3cnccc3C)cc21` [Example 58, (Z)-5-(4-Methylpyridin-3-yl)-3-(1-((4-(piperazin-1-yl)phenyl)amino)ethylidene)-1H-pyrrolo[2,3-c]pyridin-2(3H)-one], for which the inhibition at 1 µM is 71%, the inhibition at 10 µM is 72.7% and the IC50 is below 50 nM.
On the same counts, the results for `C/C(Nc1ccc(N2CCOCC2)cc1)=C1/C(=O)Nc2cnc(-c3cnccc3C)cc21` [Example 59, (Z)-5-(4-Methylpyridin-3-yl)-3-(1-((4-morpholinophenyl)amino)ethylidene)-1H-pyrrolo[2,3-c]pyridin-2(3H)-one] are 78%, 78.2% and below 50 nM.
On the same counts, the results for `COCCn1cc(N/C(C)=C2\C(=O)Nc3cnc(-c4cnccc4C)cc32)cn1` [Example 60, (Z)-3-(1-((1-(2-Methoxyethyl)-1H-pyrazol-4-yl)amino)ethylidene)-5-(4-methylpyridin-3-yl)-1H-pyrrolo[2,3-c]pyridin-2(3H)-one] are 74%, 72.7% and below 50 nM.
For `C/C(Nc1cnn(CC(F)F)c1)=C1/C(=O)Nc2cnc(-c3cnccc3C)cc21` [Example 61, (Z)-3-(1-((1-(2,2-Difluoroethyl)-1H-pyrazol 4-yl)amino)ethylidene)-5-(4-methylpyridin-3-yl)-1H pyrrolo[2,3-c]pyridin-2(3H)-one], the inhibition at 1 µM is 71.6%, the inhibition at 10 µM is 81.3% and the IC50 is below 50 nM.
As to `C/C(Nc1cnn(C)c1)=C1/C(=O)Nc2ccc(-c3cnccc3C)nc21` [Example 62, (Z)-3-(1-((1-Methyl-1H-pyrazol-4-yl)amino)ethylidene)-5-(4-methylpyridin-3-yl)-1H-pyrrolo[3,2-b]pyridin-2(3H)-one], the inhibition at 1 µM is 80.3%, the inhibition at 10 µM worked out at 94.7% and the IC50 was below 50 nM.
As for `C/C(Nc1ccn(C)n1)=C1/C(=O)Nc2ccc(-c3cnccc3C)nc21` [Example 63, (Z)-3-(1-((1-Methyl-1H-pyrazol-34yl)amino)ethylidene)-5-(4-methylpyridin-3-yl)-1H-pyrrolo[3,2-b]pyridin-2(3H)-one], the inhibition at 1 µM was 89.8%, the inhibition at 10 µM was 97.1% and the IC50 is below 50 nM.
The matching figures for `C/C(Nc1cn[nH]c1)=C1/C(=O)Nc2cnc(-c3cnccc3C)cc21` [Example 64, (Z)-3-(1-((1H-Pyrazol-4-yl)amino)ethylidene)-5-(4-methylpyridin-3-yl)-1H-pyrrolo[2,3-c]pyridin-2(3H)-one]: 83.3%, 91.2% and below 50 nM.
Take `COc1cccc(F)c1-c1cc2c(cn1)NC(=O)/C2=C(/C)Nc1cnn(C(F)F)c1` [Example 65, (Z)-3-(1-((1-(Difluoromethyl)-1H-pyrazol-4-yl)amino)ethylidene)-5-(2-fluoro-6-methoxyphenyl)-1H-pyrrolo[2,3-c]pyridin-2(3H)-one]: the inhibition at 1 µM is 79.7%, the inhibition at 10 µM was determined as 75.5% and the IC50 was in the range of 50 to 100 nM.
As for `C/C(Nc1cnn(C(F)F)c1)=C1/C(=O)Nc2cnc(-c3cnccc3C)cc21` [Example 66, (Z)-3-(1-((1-(Difluoromethyl)-1H-pyrazol-4-yl)amino)ethylidene)-5-(4-methylpyridin-3-yl)-1H-pyrrolo[2,3-c]pyridin-2(3H)-one], the inhibition at 1 µM was found to be 74.1%, the inhibition at 10 µM amounted to 76.2% and the IC50 is below 50 nM.
As for `C/C(Nc1cnn(CC2CC2)c1)=C1/C(=O)Nc2cnc(-c3cnccc3C)cc21` [Example 67, (Z)-3-(1-((1-(Cyclopropylmethyl)-1H-pyrazol-4-yl)amino)ethylidene)-5-(4-methylpyridin-3-yl)-1H-pyrrolo[2,3-c]pyridin-2(3H)-one], the inhibition at 1 µM was determined as 74%, the inhibition at 10 µM stood at 71.4% and the IC50 was below 50 nM.
Regarding `COc1ccncc1-c1cc2c(cn1)NC(=O)/C2=C(/C)Nc1ccn(C)n1` [Example 68, (Z)-5-(4-Methoxypyridin-3-yl)-3-(1-((1-methyl-1H-pyrazol-3-yl)amino)ethylidene)-1H-pyrrolo[2,3-c]pyridin-2(3H)-one], the inhibition at 1 µM stood at 77.5%, the inhibition at 10 µM turned out to be 75.3% and the IC50 was below 50 nM.
Regarding `C/C(Nc1cnn(CC(F)(F)F)c1)=C1/C(=O)Nc2cnc(-c3cnccc3C)cc21` [Example 69, (Z)-5-(4-Methylpyridin-3-yl)-3-(1-((1-(2,2,2-trifluoroethyl)-1H-pyrazol-4-yl)amino)ethylidene)-1H-pyrrolo[2,3-c]pyridin-2(3H)-one], the inhibition at 1 µM amounted to 67% and the inhibition at 10 µM stood at 65.5%.

The values are drawn from US20230009626A1 (ICHNOS SCIENCES S.A., priority 2018, published 2023).
